Molecular target: T1, Kv1.5 channels from humans (Homo sapiens, UniProt P22460)
T1 construct: expressed in transfected cells; host or cells: Xenopus laevis oocytes injected with in vitro synthesized RNA
Test: Kv1.5 currents in Xenopus oocytes, two-microelectrode voltage clamp
Assay type: cell-based
Method: Kv1.5 channels from humans were expressed in Xenopus oocytes. For this, oocytes from Xenopus laevis were first isolated and defolliculated. RNA encoding Kv1.5 synthesized in vitro was then injected into these oocytes. After Kv1.5 protein expression for 1-7days, Kv1.5 currents were measured on the oocytes using the two-microelectrode voltage clamp technique. The Kv1.5 channels were in this case as a rule activated using voltage jumps to 0 mV and 40 mV lasting 500 ms. The bath was rinsed with a solution of the following composition: NaCl 96 mM, KCl 2 mM, CaCl2 1.8 mM, MgCl2 1 mM, HEPES 5 mM (titrated with NaOH to pH 7.4). These experiments were carried out at room temperature. The following were employed for data acquisition and analysis: Genedamp amplifier (Axon Instruments, Foster City, USA) and MacLab D/A converter and software (AD Instruments, Castle Hill, Australia). The substances according to the invention were tested by adding them in different concentrations to the bath solution. The effects of the substances were calculated as the percentage inhibition of the Kv1.5 control current which was obtained when no substance was added to the solution. The data were then extrapolated using the Hill equation in order to determine the inhibitory concentration IC50 for the respective substances.

T1 sequence (P22460 whole entry): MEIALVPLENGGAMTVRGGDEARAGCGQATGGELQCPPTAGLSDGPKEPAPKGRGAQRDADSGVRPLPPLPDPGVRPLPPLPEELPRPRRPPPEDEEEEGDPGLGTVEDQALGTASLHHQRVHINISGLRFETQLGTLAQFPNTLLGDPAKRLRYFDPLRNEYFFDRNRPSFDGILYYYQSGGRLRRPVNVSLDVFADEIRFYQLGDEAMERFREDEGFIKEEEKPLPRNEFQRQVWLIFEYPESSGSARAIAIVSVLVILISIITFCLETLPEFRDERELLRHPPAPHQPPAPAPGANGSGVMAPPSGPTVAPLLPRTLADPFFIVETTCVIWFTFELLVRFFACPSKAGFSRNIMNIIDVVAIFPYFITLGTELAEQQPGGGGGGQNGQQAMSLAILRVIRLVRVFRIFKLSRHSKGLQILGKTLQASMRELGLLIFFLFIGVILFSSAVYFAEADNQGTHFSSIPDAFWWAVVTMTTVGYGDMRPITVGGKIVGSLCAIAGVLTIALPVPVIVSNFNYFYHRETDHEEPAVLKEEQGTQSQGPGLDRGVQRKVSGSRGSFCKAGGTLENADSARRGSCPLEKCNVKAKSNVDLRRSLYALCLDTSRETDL

Row | SMILES | IC50 [nM]
1 | CC(OC(=O)NCc1ccccc1-c1ccccc1C(=O)NCCc1ccccn1)c1ccc(C(F)(F)F)cc1 (racemic) [1 f] | 400
2 | O=C(NCc1ccccc1-c1ccccc1C(=O)NCCc1ccccc1)OCc1ccc(C(F)(F)F)cc1 [1 a] | 6100
3 | O=C(NCc1ccccc1-c1ccccc1C(=O)NCCc1ccccc1)OCc1ccccc1 [1 b] | 3300
4 | O=C(NCc1ccccc1-c1ccccc1C(=O)NCCc1ccccn1)OCc1ccc(C(F)(F)F)cc1 [1 d] | 1000
5 | O=C(NCc1ccccc1-c1ccccc1C(=O)NCCc1ccccn1)OCc1ccc(F)cc1 [1 e] | 500
6 | C[C@H](OC(=O)NCc1ccccc1-c1ccccc1C(=O)NCCc1ccccn1)c1ccc(C(F)(F)F)cc1 [1 g] | 400
7 | C[C@@H](OC(=O)NCc1ccccc1-c1ccccc1C(=O)NCCc1ccccn1)c1ccc(C(F)(F)F)cc1 [1 h] | 4300
8 | O=C(NCc1ccccc1-c1ccccc1C(=O)NCCc1ccccn1)OCCCC(F)(F)F [1 i] | 1700
9 | CC(OC(=O)NCc1ccccc1-c1ccccc1C(=O)NCCc1ccccn1)c1ccccc1C(F)(F)F (centres unmarked) [1 l] | 1400
10 | CC(OC(=O)NCc1ccccc1-c1ccccc1C(=O)NCCc1ccccn1)c1cccc(C(F)(F)F)c1 (centres unmarked) [1 m] | 700
11 | CC(OC(=O)NCc1ccccc1-c1ccccc1C(=O)NCCc1ccccn1)c1c(F)cccc1F (centres unmarked) [1 n] | 1400
12 | C[C@@H](OC(=O)NCc1ccccc1-c1ccccc1C(=O)NCc1ccc(F)cc1F)c1ccccc1 [1 o] | 4400
13 | CCC[C@H](OC(=O)NCc1ccccc1-c1ccccc1C(=O)NCCc1ccccn1)c1ccccc1 [1 r] | 800
14 | O=C(NCc1ccccc1-c1ccccc1C(=O)NCc1ccc(F)cc1F)OCc1ccc(F)cc1 [1 s] | 1700
15 | O=C(NCc1ccccc1-c1ccccc1C(=O)NCc1ccc(F)cc1F)OCCCC(F)(F)F [1 t] | 1300
16 | O=C(NCc1ccccc1-c1ccccc1C(=O)NCc1ccccn1)OCc1ccccc1 [1 u] | 800
17 | CCCCOC(=O)NCc1ccccc1-c1ccccc1C(=O)NCCC(C)C [2 d] | 1700
18 | CC(C)CCNC(=O)c1ccccc1-c1ccccc1CNC(=O)OCc1ccccc1Cl [2 e] | 3400

Row | SMILES | IC50 [nM]
19 | COC(=O)c1ccc(OC(=O)NCc2ccccc2-c2ccccc2C(=O)NCCC(C)C)cc1 [2 h] | 2500
20 | CC(C)(C)COC(=O)NCc1ccccc1-c1ccccc1C(=O)NCCc1ccccc1 [2 i] | 3300
21 | O=C(NCc1ccccc1-c1ccccc1C(=O)NCc1ccc(F)cc1F)Oc1ccc(F)cc1 [2 j] | 2500
22 | O=C(NCc1ccccc1-c1ccccc1C(=O)NCc1ccc(F)cc1F)Oc1ccccc1 [2 k] | 3800
23 | O=C(NCCc1ccccc1)c1ccccc1-c1ccccc1CNS(=O)(=O)c1ccccc1 [3 d] | 1700
24 | O=C(NCc1ccccc1)c1ccccc1-c1ccccc1CNS(=O)(=O)c1cccc(F)c1 [3 k] | 2400
25 | O=C(NCCc1ccccn1)c1ccccc1-c1ccccc1CNS(=O)(=O)c1ccccc1 [3 p] | 1900
26 | O=C(NCCc1ccccn1)c1ccccc1-c1ccccc1CNS(=O)(=O)c1cccc(F)c1 [3 r] | 1500
27 | COc1ccc(CC(=O)NCc2ccccc2-c2ccccc2C(=O)NCCc2ccccn2)cc1 [4 d] | 1800
28 | COc1ccc(CC(=O)NCc2ccccc2-c2ccccc2C(=O)Nc2ccc(OC)cc2)cc1 [4 g] | 3400
29 | COc1ccc(NC(=O)c2ccccc2-c2ccccc2CNC(=O)CCc2ccccc2)cc1 [4 h] | 1800
30 | COc1ccc(CC(=O)NCc2ccccc2-c2ccccc2C(=O)NCCc2ccncc2)cc1 [4 j] | 7100
31 | CCOc1ccc(CCC(=O)NCc2ccccc2-c2ccccc2C(=O)NCCc2ccccn2)cc1 [4 k] | 2200
32 | CC(CC(=O)NCc1ccccc1-c1ccccc1C(=O)NCCc1ccccn1)c1ccccc1 (centres unmarked) [4 l] | 800
33 | O=C(NCc1ccccc1)NCc1ccccc1-c1ccccc1C(=O)NCCc1ccccn1 [5 c] | 7800
34 | C[C@H](NC(=O)NCc1ccccc1-c1ccccc1C(=O)NCCc1ccccn1)c1ccccc1 [5 d] | 1900
35 | C[C@@H](NC(=O)NCc1ccccc1-c1ccccc1C(=O)NCCc1ccccn1)c1ccccc1 [5 e] | 7200

From patent US7514582B2, “2′-substituted 1,1′-biphenyl-2-carboxamides, processes for their preparation, their use as medicaments, and pharmaceutical preparations comprising them” (Sanofi-Aventis Deutschland GmbH, priority 1999, dated 2009)
